Data as given in patent US6475746B1, “Method of obtaining a composition comprising a 5-HT1D selective compound” (Synaptic Pharmaceutical Corporation, priority 1990, dated 2002).
Like-named read-outs stand apart in the source and are kept apart here.

How the values were obtained:
[1] = biological target: Human Native Membranes 5-HT1D; conditions: literature values (footnotes a, b, c), read-out: Estimated equilibrium dissociation constants (Ki values); cited from earlier work
[2] = biological target: Cloned Canine 5-HT1D-1 (RDC4) (Canis lupus familiaris, UniProt P11614); assay: [3H]5-HT binding to cloned canine 5-HT1D-1 (RDC4) in transfected cell membranes
[3] = biological target: Cloned Human 5-HT1D-1 (Homo sapiens, UniProt P28221); assay: [3H]5-HT binding to cloned human 5-HT1D-1 (gene 8-30-84) in transfected cell membranes
[4] = biological target: Cloned Human 5-HT1D-2 (Homo sapiens, UniProt P28222); assay: [3H]5-HT binding to cloned human 5-HT1D-2 (gene 11) in transfected cell membranes
[5] = biological target: human 5-HT1D clone; assay: Radioligand binding to human 5-HT1D clone (comparison with rat clone)
[6] = biological target: T1, cloned rat 5-HT1B receptor (Rattus norvegicus, UniProt P28564); type: binding
T1 construct: expressed in transfected cells; host or cells: Cos-7 cells, transient; membrane fraction
Protocol: To islolate the putative rat homolog of the 5-HT1D gone, a rat library was screened at high stringency using a human 5-HT1D sequence as a probe. […] To identify the pharmacological profile of this receptor, radioligand binding assays were performed on a membrane fraction derived from the transfected cells.

[7] = read-out: Estimated equilibrium dissociation constants (Ki values), [3H]5-HT displacement, membranes of LM (tk−) cells stably transfected, Cheng-Prusoff

Chain of Cloned Human 5-HT1D-2 (P28222 whole entry): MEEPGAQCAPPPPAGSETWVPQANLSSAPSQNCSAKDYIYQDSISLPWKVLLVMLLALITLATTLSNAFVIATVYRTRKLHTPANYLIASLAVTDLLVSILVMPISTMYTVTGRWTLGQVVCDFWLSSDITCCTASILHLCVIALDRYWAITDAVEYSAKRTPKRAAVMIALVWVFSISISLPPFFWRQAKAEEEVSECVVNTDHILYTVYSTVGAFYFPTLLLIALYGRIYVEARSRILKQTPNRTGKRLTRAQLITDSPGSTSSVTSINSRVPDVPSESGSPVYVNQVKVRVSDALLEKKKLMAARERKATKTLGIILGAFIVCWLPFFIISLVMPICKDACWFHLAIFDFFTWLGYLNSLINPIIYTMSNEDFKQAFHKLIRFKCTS
Chain of Cloned Human 5-HT1D-1 (P28221 whole entry): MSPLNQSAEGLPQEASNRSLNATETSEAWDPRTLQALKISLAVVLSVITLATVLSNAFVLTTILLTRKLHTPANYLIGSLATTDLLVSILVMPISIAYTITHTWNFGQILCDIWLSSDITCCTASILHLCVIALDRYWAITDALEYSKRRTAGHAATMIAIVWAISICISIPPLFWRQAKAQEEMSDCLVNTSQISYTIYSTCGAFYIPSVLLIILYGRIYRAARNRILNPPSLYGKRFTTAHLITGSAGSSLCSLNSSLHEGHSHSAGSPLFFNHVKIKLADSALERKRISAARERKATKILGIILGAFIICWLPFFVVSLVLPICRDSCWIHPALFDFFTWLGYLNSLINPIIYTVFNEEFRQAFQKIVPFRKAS
Chain of Cloned Canine 5-HT1D-1 (RDC4) (P11614 whole entry): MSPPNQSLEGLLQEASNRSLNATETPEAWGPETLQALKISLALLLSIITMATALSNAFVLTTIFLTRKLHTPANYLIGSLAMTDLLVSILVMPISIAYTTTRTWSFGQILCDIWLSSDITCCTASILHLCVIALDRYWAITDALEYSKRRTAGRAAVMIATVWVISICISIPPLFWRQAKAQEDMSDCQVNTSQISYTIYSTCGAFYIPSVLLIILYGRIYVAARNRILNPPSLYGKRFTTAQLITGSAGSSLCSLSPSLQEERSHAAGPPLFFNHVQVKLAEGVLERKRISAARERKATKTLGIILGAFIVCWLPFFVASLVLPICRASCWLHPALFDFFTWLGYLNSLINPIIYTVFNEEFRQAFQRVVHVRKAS
T1 sequence (P28564 whole entry): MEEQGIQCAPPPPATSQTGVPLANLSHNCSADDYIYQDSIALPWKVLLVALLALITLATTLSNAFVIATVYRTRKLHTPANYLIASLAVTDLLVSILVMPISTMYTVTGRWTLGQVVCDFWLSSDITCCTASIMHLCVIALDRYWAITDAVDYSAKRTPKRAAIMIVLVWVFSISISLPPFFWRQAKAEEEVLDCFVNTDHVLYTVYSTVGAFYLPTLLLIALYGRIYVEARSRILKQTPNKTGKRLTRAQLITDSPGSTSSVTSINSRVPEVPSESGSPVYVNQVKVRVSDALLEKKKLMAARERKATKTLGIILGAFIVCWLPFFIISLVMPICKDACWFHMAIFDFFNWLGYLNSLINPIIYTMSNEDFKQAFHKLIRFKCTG

## COc1ccc2[nH]cc(CCN)c2c1 [5-Methoxytryptamine]
[1]
  Ki: 6.2 nM

## NCCc1c[nH]c2ccc(C(N)=O)cc12 [5-Carboxamidotryptamine]
[2]; RDC4-transfected cells
  affinity for the binding site: high affinity
[2]; [7]
  Ki: 0.92 ± 0.06 nM

## Cc1[nH]c2ccc(O)cc2c1CCN [2-methyl-5-HT]
[3]; [7]
  Ki: 915 ± 68 nM
[4]; [7]
  Ki: 860 ± 109 nM
[2]; [7]
  Ki: 444 ± 30 nM
[1]
  Ki: 1700 nM

## NCCc1c[nH]c2ccccc12 [Tryptamine]
[2]; [7]
  Ki: 343 ± 15 nM
[1]
  Ki: 46 nM

## NCCc1c[nH]c2ccc(O)cc12 [5-Hydrozytryptamine]
[2]; [7]
  Ki: 5 ± 1.4 nM
[1]
  Ki: 6.5 nM

## COC(=O)[C@@H]1[C@H]2C[C@H]3c4[nH]c5ccccc5c4CCN3C[C@@H]2CC[C@@H]1O [Yohimbine]
[3]; [7]
  Ki: 22 ± 2 nM
[2]; [7]
  Ki: 32 ± 6 nM
[1]
  Ki: 42 nM

## CN1[C@@H]2CC[C@H]1C[C@@H](OC(=O)c1c[nH]c3ccccc13)C2 [ICS 205-930]
[2]; RDC4-transfected cells
  ability to compete for 3H-5-HT binding sites: unable to compete

## O=C(c1ccc(F)cc1)C1CCN(CCn2c(=O)[nH]c3ccccc3c2=O)CC1 [Ketanserin]
[3]
  Ki: 73 ± 12 nM
[4]
  Ki: 5200 ± 524 nM
[2]
  Ki: > 1000 nM
[2]; RDC4-transfected cells
  ability to compete for 3H-5-HT binding sites: unable to compete
[1]
  Ki: > 10000 nM

## CNS(=O)(=O)Cc1ccc2[nH]cc(CCN(C)C)c2c1 [Sumatriptan]
[3]; refers to Table 1
  affinity: extremely high affinity

## FC(F)(F)c1cccc(N2CCNCC2)c1 [TFMPP]
[2]; [7]
  Ki: 112 ± 14 nM
[1]
  Ki: 210 nM

## CN1C[C@H](CO)C=C2c3cccc4[nH]cc(c34)C[C@H]21 [Lysergol]
[3]; [7]
  Ki: 0.63 ± 0.1 nM
[4]; [7]
  Ki: 1.2 ± 0.1 nM

## COc1ccc2[nH]cc(CCN(C)C)c2c1 [5-methoxy-DMT]
[2]; [7]
  Ki: 5.1 ± 1.7 nM

## Clc1cccc(N2CCNCC2)c1 [mCPP]
[3]; [7]
  Ki: 216 ± 20 nM
[4]; [7]
  Ki: 361 ± 31 nM
[2]; [7]
  Ki: 329 ± 80 nM
[1]
  Ki: 1200 nM

## CC[C@@H](CO)NC(=O)[C@@H]1C=C2c3cccc4c3c(cn4C)C[C@H]2N(C)C1 [Methysergide]
[3]; [7]
  Ki: 3.6 ± 0.6 nM
[4]; [7]
  Ki: 25 ± 5 nM
[2]; [7]
  Ki: 7.7 ± 1.7 nM

## CN1CCc2cc(Cl)c(O)cc2[C@@H](c2ccccc2)C1 [SCH-23390]
[3]
  Ki: 676 ± 69 nM
[4]
  Ki: 1210 ± 626 nM

## COc1ccccc1N1CCN(CCCCN2C(=O)c3ccccc3C2=O)CC1 [NAN-190]
[3]
  Ki: 194 ± 12 nM
[4]
  Ki: 652 ± 48 nM

## CN1C[C@H](C(=O)N[C@]2(C)O[C@@]3(O)[C@@H]4CCCN4C(=O)[C@H](Cc4ccccc4)N3C2=O)C=C2c3cccc4[nH]cc(c34)C[C@H]21 [Ergotamine]
[2]
  Ki: 1.9 ± 0.3 nM
[1]
  Ki: 0.3 nM

## CN1C[C@H](CNC(=O)OCc2ccccc2)C[C@@H]2c3cccc4c3c(cn4C)C[C@H]21 [Metergoline]
[3]
  Ki: 5.8 ± 1.1 nM
[4]
  Ki: 18 ± 3 nM
[1]
  Ki: 12 nM

## ^3H-5-HT
[5]; read-out: Kd of [3H]5-HT
  Kd: 4 nM
[2]; read-out: KD of radioligand (apparent high affinity), RDC4-transfected Cos-7 and Ltk- cells
  Kd: ~3 nM
[2]; read-out: Kd of radioligand, Ltk- cells transfected with RDC4
  Kd: 3.6 nM
[2]; read-out: affinity of radioligand binding, transiently transfected Cos-7 cells, RDC4
  Kd: 3 nM

## CCCN(CCC)C1CCc2cccc(O)c2C1 (stereo not shown) [DPAT]
[2]; [7]
  Ki: 86 ± 21 nM
[1]
  Ki: 340 nM

## c1ccc2c(N3CCNCC3)cccc2c1 [1-Napthylpiperazine]
[3]; [7]
  Ki: 7.4 ± 0.6 nM
[4]; [7]
  Ki: 12 ± 2 nM

## CC(C)(C)NCC(O)COc1cccc2[nH]c(C#N)c([125I])c12 (stereo not shown) [[^125I]iodocyanopindolol]
[5]; at 1 nM
  specific binding of [125I]I-CYP: no specific binding detected

## Oc1ccc2c(CCC3CCNCC3)c[nH]c2c1 [6-OH-indalpine]
[2]; RDC4-transfected cells
  ability to compete for 3H-5-HT binding sites: unable to compete

## CC[C@@H](CO)NC(=O)[C@@H]1C=C2c3cccc4[nH]cc(c34)C[C@H]2N(C)C1 [Methylergonovine]
[3]
  Ki: 0.86 ± 0.36 nM
[4]
  Ki: 2.9 ± 1.5 nM

## CCCN(CCC)CCc1c[nH]c2ccc(C(N)=O)cc12 [Dipropyl-5-CT, dipropyl-5-carboxyamidotryptamine]
[3]; [7]
  Ki: 13 ± 1 nM
[6]
  activity at the rat receptor: essentially inactive
[4]; [7]
  Ki: 42 ± 4 nM

## CSc1ccc2c(c1)C(N1CCN(C)CC1)Cc1ccccc1S2 (stereo not shown) [Methiothepin]
[3]; [7]
  Ki: 11 ± 2 nM
[4]; [7]
  Ki: 25 ± 7 nM
[1]
  Ki: 17 nM

## Nc1ccc(CCN2CCN(c3cccc(C(F)(F)F)c3)CC2)cc1 [PAPP]
[3]; [7]
  Ki: 3.1 ± 0.2 nM
[4]; [7]
  Ki: 10 ± 1 nM
[2]; [7]
  Ki: 35 ± 6 nM

## Corynanthine
[1]
  Ki: > 10000 nM

## COC(=O)[C@H]1[C@H]2C[C@H]3c4[nH]c5ccccc5c4CCN3C[C@H]2CC[C@@H]1O [Rauwolscine]
[3]
  Ki: 16 ± 2 nM
[2]
  Ki: 5.3 ± 2.9 nM

## CC(C)(C)NCC(O)COc1cccc2[nH]c(C#N)c(I)c12 (stereo not shown) [[^125I]iodocyanopindolol]
[6]; Cos-7 membranes, in the presence of 3 μM isoproterenol, read-out: Kd of [125I]iodocyanopindolol
  Kd: 0.16 nM

## O=C(CCCN1CCC2(CC1)C(=O)NCN2c1ccccc1)c1ccc(F)cc1 [Spiperone]
[3]; [7]
  Ki: 995 ± 96 nM
[4]
  Ki: > 10000 nM
[2]
  Ki: > 1000 nM

## Cc1nc2sccn2c(=O)c1CCN1CCC(=C(c2ccc(F)cc2)c2ccc(F)cc2)CC1 [Ritanserin]
[3]
  Ki: 54 ± 10 nM
[4]
  Ki: 1200 ± 115 nM
[1]
  Ki: 3600 nM

## COc1cc(CC(C)N)c(OC)cc1I (stereo not shown) [DOI]
[3]; [7]
  Ki: 714 ± 81 nM
[4]; [7]
  Ki: 1670 ± 451 nM
[2]; [7]
  Ki: 729 ± 102 nM
[1]
  Ki: 670 nM

## Cc1ccc(N(CC2=NCCN2)c2cccc(O)c2)cc1 [Phentolamine]
[3]
  Ki: 775 ± 72 nM
[4]
  Ki: 2150 ± 685 nM

## COc1cc(N)c(Cl)cc1C(=O)NC1CN2CCC1CC2 (stereo not shown) [Zacopride]
[3]
  Ki: > 10000 nM
[4]
  Ki: > 10000 nM
[2]
  Ki: > 10000 nM

## CC(C)NCC(O)COc1cccc2[nH]ccc12 (stereo not shown) [Pindolol]
[3]
  Ki: 4110 ± 504 nM
[4]
  Ki: 4880 ± 302 nM
[4]; transfected Cos-7 cells, peptide 11, masking ligand 1 μM
  effect of masking ligand on specific binding or pharmacological profile: no significant effect
[2]
  Ki: > 1000 nM
[2]; RDC4-transfected cells, 1 μm
  effect of co-incubation on high affinity 3H-5-HT binding: not affected
[2]; transfected Cos-7 cells, RDC4, masking ligand 1 μM
  effect of masking ligand on specific binding or pharmacological profile: no significant effect
[1]
  Ki: > 10000 nM

## NCCc1c[nH]c2ccc(OCc3ccccc3)cc12 [5-Benzoxyltryptamine]
[3]; [7]
  Ki: 9.6 ± 3 nM
[4]; [7]
  Ki: 19 ± 8 nM
